One may read the EC50 as the midpoint of the concentration-response curve. A word on the Ki: it is a measure of affinity in units of concentration, obtained from inhibition or displacement.

The results in this text go back to patent US20030139431A1 (priority 2001, published 2003).

Assay [1] addresses T1, rNPFF2 (Rattus norvegicus, UniProt Q9EQD2).
T1 construct: expressed in transfected cells
As to the kind of experiment: Functional assay (agonist potency, intrinsic activity) at cloned rat NPFF2 receptor. Type of assay: cell-based. The note with it: for rNPFF2 IA (intrinsic activity): percent of maximum response elicited by neuropeptide FF, rat NPFF2; for EC50: recombinant rat NPFF2. As to the method: (§1) Intrinsic activity of a compound is measured as the percent of maximum response.

Assay [2] addresses T2, rNPFF1 (Rattus norvegicus, UniProt Q9EP86).
T2 construct: expressed in transfected cells
As to the kind of experiment: Functional assay (agonist potency, intrinsic activity) at cloned rat NPFF1 receptor. The class given is cell-based. The settings on record: for rNPFF1 IA (intrinsic activity): percent of maximum response elicited by neuropeptide FF, rat NPFF1; for EC50: recombinant rat NPFF1. As to the method: as §1

The target in assay [3] is T1, rNPFF2. Nature of the assay: Binding affinity at cloned recombinant rat NPFF2 receptor.
The target in assay [4] is T2, rNPFF1. Nature of the assay: Binding affinity at cloned recombinant rat NPFF1 receptor.

T2 sequence (Q9EP86 whole entry): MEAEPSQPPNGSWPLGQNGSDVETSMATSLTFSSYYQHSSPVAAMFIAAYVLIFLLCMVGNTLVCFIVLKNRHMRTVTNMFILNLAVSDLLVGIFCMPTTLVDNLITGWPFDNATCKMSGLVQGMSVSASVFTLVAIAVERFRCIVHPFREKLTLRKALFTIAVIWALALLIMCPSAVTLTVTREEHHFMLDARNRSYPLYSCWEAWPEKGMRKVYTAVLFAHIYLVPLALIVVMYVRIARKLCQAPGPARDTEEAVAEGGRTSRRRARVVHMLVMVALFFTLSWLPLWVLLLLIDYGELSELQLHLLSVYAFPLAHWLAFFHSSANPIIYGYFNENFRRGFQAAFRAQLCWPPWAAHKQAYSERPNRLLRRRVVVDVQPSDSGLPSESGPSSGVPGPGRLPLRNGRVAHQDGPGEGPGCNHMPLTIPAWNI
T1 sequence (Q9EQD2 whole entry): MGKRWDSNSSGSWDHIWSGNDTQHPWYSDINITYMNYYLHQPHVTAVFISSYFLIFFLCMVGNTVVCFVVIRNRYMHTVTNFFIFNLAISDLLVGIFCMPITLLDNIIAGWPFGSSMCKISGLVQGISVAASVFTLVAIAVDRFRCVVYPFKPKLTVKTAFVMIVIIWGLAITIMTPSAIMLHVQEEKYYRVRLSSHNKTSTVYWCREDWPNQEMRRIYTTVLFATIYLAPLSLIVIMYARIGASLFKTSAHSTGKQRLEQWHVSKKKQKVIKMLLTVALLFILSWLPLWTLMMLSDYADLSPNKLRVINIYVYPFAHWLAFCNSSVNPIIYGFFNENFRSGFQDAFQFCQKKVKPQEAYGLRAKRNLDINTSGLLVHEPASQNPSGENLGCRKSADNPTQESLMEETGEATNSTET

Turning to `Cc1nc(NC(=N)N)nc2ccc(OC(F)(F)F)cc12` [Compound 1030, N-[4-methyl-6-(trifluoromethoxy)-2-quinazolinyl]guanidine], on rNPFF2 [1], the “rNPFF2 IA (intrinsic activity)” value was 85% NPFF and the EC50 was 625 nM. Also, at rNPFF1 [2], the “rNPFF1 IA (intrinsic activity)” value was “Inactive” and the EC50 is > 10000 nM. In addition, the Ki at rNPFF2 [3] stood at 4860 nM. For the same compound, the Ki on rNPFF1 [4] was found to be 176 nM.
Turning to `CCCCCOc1ccc2nc(NC(=N)N)nc(C)c2c1` [Compound 1031, N-[4-methyl-6-(pentyloxy)-2-quinazolinyl]guanidine], on rNPFF2 [1], the “rNPFF2 IA (intrinsic activity)” value was 66% NPFF and the EC50 amounted to 2190 nM. On rNPFF1 [2], the “rNPFF1 IA (intrinsic activity)” value is on record as “Inactive” and the EC50 is > 10000 nM. At rNPFF2 [3], the Ki amounted to 3220 nM. Further, the Ki on rNPFF1 [4] came out at 794 nM.
Take `Cc1nc(NC(=N)N)nc2ccc(Oc3ccccc3)cc12` [Compound 1032, N-(4-methyl-6-phenoxy-2-quinazolinyl)guanidine]: on rNPFF2 [1], the “rNPFF2 IA (intrinsic activity)” value came to 93% NPFF and the EC50 amounted to 459 nM. In addition, on rNPFF1 [2], the “rNPFF1 IA (intrinsic activity)” value is 31% NPFF and the EC50 was 374 nM. The Ki at rNPFF2 [3] came out at 1640 nM. Moreover, the Ki at rNPFF1 [4] came out at 291 nM.
In the case of `Cc1ccc(Oc2ccc3nc(NC(=N)N)nc(C)c3c2)cc1` [Compound 1033, N-[4-methyl-6-(4-methylphenoxy)-2-quinazolinyl]guanidine], the “rNPFF2 IA (intrinsic activity)” value on rNPFF2 [1] stood at 51% NPFF. Also, the EC50 at rNPFF2 [1] was 3160 nM; on rNPFF1 [2], > 10000 nM. The “rNPFF1 IA (intrinsic activity)” value at rNPFF1 [2] was “Inactive”. Besides, the Ki on rNPFF2 [3] turned out to be 5860 nM; at rNPFF1 [4], 481 nM.
As for `Cc1nc(NC(=N)N)nc2ccc(CCCC(C)O)cc12` (stereo not drawn) [Compound 1034, N-(6-[1-(4-hydroxyl-pentyl)]-4-methyl-2-quinazolino)guanidine], on rNPFF2 [1], the “rNPFF2 IA (intrinsic activity)” value is given as 101% NPFF and the EC50 is 394 nM. For the same compound, on rNPFF1 [2], the “rNPFF1 IA (intrinsic activity)” value stood at 63% NPFF and the EC50 stood at 610 nM. Also, the Ki at rNPFF2 [3] stood at 1540 nM. At rNPFF1 [4], the Ki was 82 nM.
As to `Cc1nc(NC(=N)N)nc2cc(C(C)O)ccc12` (stereo not drawn) [Compound 1035, N-[7-(1-hydroxyethyl)-4-methyl-2-quinazolinyl]guanidine], at rNPFF2 [1], the “rNPFF2 IA (intrinsic activity)” value was 52% NPFF and the EC50 stood at 3160 nM. Also, at rNPFF1 [2], the “rNPFF1 IA (intrinsic activity)” value was “Inactive” and the EC50 is > 10000 nM. The Ki at rNPFF2 [3] was 1180 nM. The Ki on rNPFF1 [4] turned out to be 842 nM.
Consider `Cc1nc(NC(=N)N)nc2cc(OC(F)(F)F)ccc12` [Compound 1036, N-[4-methyl-7-(trifluoromethoxy)-2-quinazolinyl]guanidine], for which, at rNPFF2 [1], the “rNPFF2 IA (intrinsic activity)” value is given as 78% NPFF and the EC50 amounted to 369 nM. Besides, at rNPFF1 [2], the “rNPFF1 IA (intrinsic activity)” value was “Inactive” and the EC50 is > 10000 nM. For the same compound, on rNPFF2 [3], the Ki is 2460 nM. At rNPFF1 [4], the Ki came out at 132 nM.
As to `Cc1nc(NC(=N)N)nc2cc3c(cc12)C=CCC3` [Compound 1037, N-(4-methyl-8,9-dihydrobenzo[g]quinazolin-2-yl)guanidine], at rNPFF2 [1], the “rNPFF2 IA (intrinsic activity)” value was found to be 71% NPFF and the EC50 was determined as 3160 nM. For the same compound, at rNPFF1 [2], the “rNPFF1 IA (intrinsic activity)” value is recorded as “Inactive” and the EC50 was > 10000 nM. For the same compound, the Ki at rNPFF2 [3] turned out to be 824 nM. Besides, the Ki at rNPFF1 [4] was determined as 143 nM.
Turning to `CCC(C)c1ccc2nc(NC(=N)N)nc(C)c2c1` (stereo not drawn) [Compound 2002, N-(6-sec-butyl-4-methyl-2-quinazolinyl)guanidine], on rNPFF2 [1], the “rNPFF2 IA (intrinsic activity)” value came to 92% NPFF and the EC50 stood at 423 nM. Also, at rNPFF1 [2], the “rNPFF1 IA (intrinsic activity)” value stood at 51% NPFF and the EC50 was found to be 250 nM. Moreover, on rNPFF2 [3], the Ki came out at 461 nM. Besides, the Ki at rNPFF1 [4] amounted to 77 nM.
